Source: patent publication US20230192715A1 (priority 2020, published 2023)

What was measured:
[1] = system: PD95, GluR1; conditions: in vivo; cited from earlier work
[2] = system: mRNA for NMDAR1; conditions: in vitro; cited from earlier work
[3] = Double-blind placebo controlled randomized clinical trial in major depressive disorder; assay type: in vivo, human
[4] = system: BDNF; conditions: humans; plasma, healthy volunteers, 14-day Phase 1 study; cited from earlier work
[5] = system: serotonin receptors; conditions: Rickli et al, 2018; cited from earlier work

| SMILES | levels of PD95, GluR1 [1] | mRNA for NMDAR1 [2] | persistence of remission ([3]; after discontinuation of treatment) | patients with remission of disease (MADRS<10) ([3]; within the first week of treatment, 5% in patients randomized to placebo) | BDNF [4] | actions at serotonin receptors [5] |
| --- | --- | --- | --- | --- | --- | --- |
| CCC(=O)C(C[C@H](C)N(C)C)(c1ccccc1)c1ccccc1 [Dextromethadone] | increases levels of PD95, GluR1 | increases mRNA for NMDAR1 | persisted for at least seven days after discontinuation of treatment | over 30% | increases BDNF |  |
| CN1CC[C@@]23c4c5ccc(O)c4O[C@@H]2[C@H](O)C=C[C@@H]3[C@@H]1C5 [Levomorphine] |  |  |  |  |  | no actions at serotonin receptors |
